In ChEMBL document CHEMBL4396865, “Current advances of triazole alcohols derived from fluconazole: Design, in vitro and in silico studies” (2019):
≈ marks a conversion by molar mass, not a printed value.

Legend:
Format in all cases: functional
Candida albicans [1] = assay: Antifungal activity against Candida albicans after 48 hrs by NCCLS protocol based method
Candida parapsilosis [2] = assay: Antifungal activity against Candida parapsilosis after 48 hrs by NCCLS protocol based method; settings: Lodderomyces parapsilosis
Candida albicans [3] = assay: Antifungal activity against Candida albicans; settings: Candida albicans
Candida parapsilosis [4] = assay: Antifungal activity against Candida parapsilosis; settings: Lodderomyces parapsilosis
Candida tropicalis = assay: Antifungal activity against Candida tropicalis; settings: Candida tropicalis
Kluyveromyces marxianus = assay: Antifungal activity against Candida kefyr; settings: Kluyveromyces marxianus
Cryptococcus neoformans = assay: Antifungal activity against Cryptococcus neoformans; settings: Cryptococcus neoformans
Trichophyton rubrum = assay: Antifungal activity against Trichophyton rubrum; settings: Trichophyton rubrum
Aspergillus fumigatus [5] = assay: Antifungal activity against Aspergillus fumigatus; settings: Aspergillus fumigatus
Candida albicans [6] = assay: Antifungal activity against Candida albicans ATCC 76615 after 24 hrs by microbroth dilution method; settings: ATCC 76615, 24 h
Candida albicans [7] = assay: Potency index, ratio of fluconazole MIC to test compound MIC for Candida albicans
Candida albicans [8] = assay: Antifungal activity against Candida albicans CA98001
Candida albicans [9] = assay: Antifungal activity against Candida albicans DSY735
Candida albicans [10] = assay: Antifungal activity against Candida albicans CAAL-74
Pichia kudriavzevii [11] = assay: Antifungal activity against Candida krusei CK506
Pichia kudriavzevii [12] = assay: Antifungal activity against Candida krusei CK8
Nakaseomyces glabratus = assay: Antifungal activity against Candida glabrata CG468
Candida parapsilosis [13] = assay: Antifungal activity against Candida parapsilosis CAPA1
Candida parapsilosis [14] = assay: Antifungal activity against Candida parapsilosis CAPA2
Aspergillus fumigatus [15] = assay: Antifungal activity against Aspergillus fumigatus AF98003
Pichia norvegensis = assay: Antifungal activity against Candida mycoderma

COC(=O)CC[C@@H](C)[C@H]1CC[C@H]2[C@@H]3[C@H](O)C[C@@H]4C[C@@H](n5cc(CC(O)(Cn6cncn6)c6ccc(F)cc6F)nn5)CC[C@]4(C)[C@H]3C[C@H](O)[C@]12C (stereo partly drawn)
MIC (Candida albicans [1]): 3.12 to 6.25 µg/mL (≈ 4.39 to 8.79 µM) | MIC (Candida parapsilosis [2]): 3.12 to 6.25 µg/mL (≈ 4.39 to 8.79 µM)

OC(CN1CCC(OCc2ccccc2F)CC1)(Cn1cncn1)c1ccc(F)cc1F (stereo not drawn)
MIC80 (Candida albicans [3]): 0.01 to 0.56 µM (≈ 0.00446 to 0.25 µg/mL) | MIC80 (Candida parapsilosis [4]): 0.01 to 0.56 µM (≈ 0.00446 to 0.25 µg/mL) | MIC80 (Candida tropicalis): 0.01 to 0.56 µM (≈ 0.00446 to 0.25 µg/mL) | MIC80 (Kluyveromyces marxianus): 0.01 to 0.56 µM (≈ 0.00446 to 0.25 µg/mL) | MIC80 (Cryptococcus neoformans): 0.01 to 0.56 µM (≈ 0.00446 to 0.25 µg/mL) | MIC80 (Trichophyton rubrum): 0.01 to 0.56 µM (≈ 0.00446 to 0.25 µg/mL) | MIC80 (Aspergillus fumigatus [5]): 0.01 to 0.56 µM (≈ 0.00446 to 0.25 µg/mL) | MIC80 (Candida albicans [6]): 0.01 to 0.56 µM (≈ 0.00446 to 0.25 µg/mL) | Ratio (Candida albicans [7]): 82

OC(CN1CCC(OCc2ccccc2)CC1)(Cn1cncn1)c1ccc(F)cc1F (stereo not drawn)
MIC80 (Candida albicans [3]): 0.01 to 0.56 µM (≈ 0.00428 to 0.24 µg/mL) | MIC80 (Candida parapsilosis [4]): 0.01 to 0.56 µM (≈ 0.00428 to 0.24 µg/mL) | MIC80 (Candida tropicalis): 0.01 to 0.56 µM (≈ 0.00428 to 0.24 µg/mL) | MIC80 (Kluyveromyces marxianus): 0.01 to 0.56 µM (≈ 0.00428 to 0.24 µg/mL) | MIC80 (Cryptococcus neoformans): 0.01 to 0.56 µM (≈ 0.00428 to 0.24 µg/mL) | MIC80 (Trichophyton rubrum): 0.01 to 0.56 µM (≈ 0.00428 to 0.24 µg/mL) | MIC80 (Aspergillus fumigatus [5]): 0.01 to 0.56 µM (≈ 0.00428 to 0.24 µg/mL) | MIC80 (Candida albicans [6]): 0.01 to 0.56 µM (≈ 0.00428 to 0.24 µg/mL) | Ratio (Candida albicans [7]): 82

OC(CN1CCC(OCc2ccccc2Cl)CC1)(Cn1cncn1)c1ccc(F)cc1F (stereo not drawn)
MIC80 (Candida albicans [3]): 0.01 µM (≈ 0.00463 µg/mL) | MIC80 (Candida parapsilosis [4]): 0.01 to 2.33 µM (≈ 0.00463 to 1.08 µg/mL) | MIC80 (Candida tropicalis): 0.01 to 2.33 µM (≈ 0.00463 to 1.08 µg/mL) | MIC80 (Kluyveromyces marxianus): 0.01 to 2.33 µM (≈ 0.00463 to 1.08 µg/mL) | MIC80 (Cryptococcus neoformans): 0.01 to 2.33 µM (≈ 0.00463 to 1.08 µg/mL) | MIC80 (Trichophyton rubrum): 0.03 to 0.15 µM (≈ 0.0139 to 0.0694 µg/mL) | MIC80 (Aspergillus fumigatus [5]): 0.55 to 2.33 µM (≈ 0.255 to 1.08 µg/mL) | MIC80 (Candida albicans [6]): 0.01 to 2.33 µM (≈ 0.00463 to 1.08 µg/mL) | Ratio (Candida albicans [7]): 82

N#Cc1ccc(COC2CCN(CC(O)(Cn3cncn3)c3ccc(F)cc3F)CC2)cc1 (stereo not drawn)
MIC80 (Candida albicans [3]): 0.01 µM (≈ 0.00453 µg/mL) | MIC80 (Candida parapsilosis [4]): 0.01 to 2.33 µM (≈ 0.00453 to 1.06 µg/mL) | MIC80 (Candida tropicalis): 0.01 to 2.33 µM (≈ 0.00453 to 1.06 µg/mL) | MIC80 (Kluyveromyces marxianus): 0.01 to 2.33 µM (≈ 0.00453 to 1.06 µg/mL) | MIC80 (Cryptococcus neoformans): 0.01 to 2.33 µM (≈ 0.00453 to 1.06 µg/mL) | MIC80 (Trichophyton rubrum): 0.03 to 0.15 µM (≈ 0.0136 to 0.068 µg/mL) | MIC80 (Aspergillus fumigatus [5]): 0.55 to 2.33 µM (≈ 0.249 to 1.06 µg/mL) | MIC80 (Candida albicans [6]): 0.01 to 2.33 µM (≈ 0.00453 to 1.06 µg/mL) | Ratio (Candida albicans [7]): 82

OC(CN1CCC(OCc2cccc(Br)c2)CC1)(Cn1cncn1)c1ccc(F)cc1F (stereo not drawn)
MIC80 (Candida albicans [3]): 0.01 to 0.56 µM (≈ 0.00507 to 0.284 µg/mL) | MIC80 (Candida parapsilosis [4]): 0.01 to 0.56 µM (≈ 0.00507 to 0.284 µg/mL) | MIC80 (Candida tropicalis): 0.01 to 0.56 µM (≈ 0.00507 to 0.284 µg/mL) | MIC80 (Kluyveromyces marxianus): 0.01 to 0.56 µM (≈ 0.00507 to 0.284 µg/mL) | MIC80 (Cryptococcus neoformans): 0.01 to 0.56 µM (≈ 0.00507 to 0.284 µg/mL) | MIC80 (Trichophyton rubrum): 0.01 to 0.56 µM (≈ 0.00507 to 0.284 µg/mL) | MIC80 (Aspergillus fumigatus [5]): 0.01 to 0.56 µM (≈ 0.00507 to 0.284 µg/mL) | MIC80 (Candida albicans [6]): 0.01 to 0.56 µM (≈ 0.00507 to 0.284 µg/mL) | Ratio (Candida albicans [7]): 82

CN(Cc1ccc(-c2ccc(C#N)cc2)cc1)CC(O)(Cn1cncn1)c1ccc(F)cc1F (stereo not drawn)
MIC (Candida albicans [8]): 0.001 to 1.32 µg/mL | MIC (Candida albicans [9]): 0.001 to 1.32 µg/mL | MIC (Candida albicans [10]): 0.001 to 1.32 µg/mL | MIC (Pichia kudriavzevii [11]): 0.001 to 1.32 µg/mL | MIC (Pichia kudriavzevii [12]): 0.001 to 1.32 µg/mL | MIC (Nakaseomyces glabratus): 0.001 to 1.32 µg/mL | MIC (Candida parapsilosis [13]): 0.001 to 1.32 µg/mL | MIC (Candida parapsilosis [14]): 0.001 to 1.32 µg/mL | MIC (Aspergillus fumigatus [15]): 2.76 µg/mL (≈ 6.01 µM)

O=C(O)c1cn(C2CC2)c2c(Cl)c(N3CCC(NCC(O)(Cn4cncn4)c4ccc(Cl)c(Cl)c4)C3)c(F)cc2c1=O (stereo not drawn)
MIC (Candida albicans [3]; read-out: MIC): 0.25 to 2 µg/mL (≈ 0.393 to 3.15 µM) | MIC (Pichia norvegensis): 0.25 to 2 µg/mL (≈ 0.393 to 3.15 µM)
